This note sets out measurements from patent US5869494A, “Uses for barbituric acid analogs” (priority 1997, dated 1999).

The experiment relates to Daudi human lymphoma cells. The experiment can be described thus: Cytotoxicity for lymphoma cells (Daudi). Particulars: Homo sapiens, Daudi, 150 μg/ml, time not stated; read-out: cell kill. Type of experiment: cell-based. The procedure: In the following examples, tumor cells were treated with varying concentrations of compounds C1, C2, C4 or C5 dissolved in absolute ethanol. To limit any non-specific toxicity, the final concentration of ethanol was not allowed to exceed 0.5%. Stock concentrations of 5 mg/ml or 20 mg/ml were used. Viability of cells was determined in some studies by the trypan blue dye exclusion method. In other studies, cell viability/proliferation activity was determined by MTT assay by using a kit obtained from Promega, (Promega Corp., Madison, Wis. 53711). For this assay, a 100 μl cell suspension containing 5-10^3 monolayer cells or 1×10^5 suspension cells was placed in the wells of a 96-well microtiter plate. After overnight incubation, cells were treated with different concentrations of the test compound. Control wells received vehicle only. After 24, 48, 72 or 96 h of incubation, 50 μl of MTT dye solution was added. After 4 h of incubation at 37° C., 100 μl of solubilization/stop solution was added. After another h of incubation, cells were mixed using a multi-channel pipet and the absorption of the dye color was recorded at 570 nm using a plate reading absorption spectrophotometer.
The viability of the cells was
Compounds C4 and C5 were also tested for toxicity against human lymphoma Daudi cells.

As for `CN1C(=O)CC(=O)N(C)C1=S` [Compound C5], the cytotoxicity at 150 µg/mL is under 20%.
With `O=C1CC(=O)NC(=S)N1` [Compound C4] the figure was under 20%.
